This assay has as its target T1, human PD-1 / PD-L1-Ig binding on Jurkat cell line over-expressing human PD-1 (Jurkat-PD-1) (Homo sapiens, UniProt Q15116).
T1 construct: expressed in transfected cells; host or cells: Jurkat
Put plainly: Jurkat-PD-1 Cell Binding High-Content Screening Assay (CBA). To be noted: Jurkat-PD-1 cells, PE-labeled PD-L1-Ig 20 nM final; read-out: Jurkat HPD1_PDL1 IC50. Format: cell-based. In short, it runs like this: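 Read-out: high-content imaging of PE-tagged PD-L1-Ig bound to Jurkat cells overexpressing human PD-1, after fixation with 4% paraformaldehyde and Hoechst 33342 nuclear staining. Ligand was used at 20 nM final for 1 hour, after a 2 h compound exposure at 37° C in serum-containing DMEM.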

The record followed here is patent publication US20250163104A1, “MACROCYCLIC IMMUNOMODULATORS” (priority 2021, published 2025).

Molecules are shown by their SMILES. Where a SMILES comes first, the peptide text is derived from it. Bridges are numbered along the chain shown (N, C = ends). [ ]: non-standard residue; d: D form. The star is where a group is joined. ξ: configuration not given here. Bip(4'-COOH) = N[C@@H](Cc1ccc(-c2ccc(C(=O)O)cc2)cc1)C(=O)O; Tyr(3,5-F2) = N[C@@H](Cc1cc(F)c(O)c(F)c1)C(=O)O; Phe(4-COOH) = N[C@@H](Cc1ccc(C(=O)O)cc1)C(=O)O; Bip = N[C@@H](Cc1ccc(-c2ccccc2)cc1)C(=O)O; Phe(3-Me) = Cc1cccc(C[C@H](N)C(=O)O)c1; Phe(4-F) = N[C@@H](Cc1ccc(F)cc1)C(=O)O; Val(3-OH) = CC(C)(O)[C@H](N)C(=O)O; aIle = CC[C@@H](C)[C@H](N)C(=O)O; ξW = NC(Cc1c[nH]c2ccccc12)C(=O)O; 4Pal = N[C@@H](Cc1ccncc1)C(=O)O; 3Thi = N[C@@H](Cc1ccsc1)C(=O)O; Cha = N[C@@H](CC1CCCCC1)C(=O)O; Ile(3ξ) = CCC(C)[C@H](N)C(=O)O; Carboxymethyl = O=C(O)C*; Nle = CCCC[C@H](N)C(=O)O; Orn = NCCC[C@H](N)C(=O)O; Dab = NCC[C@H](N)C(=O)O; Dap = NC[C@H](N)C(=O)O

T1 sequence (Q15116 25-288): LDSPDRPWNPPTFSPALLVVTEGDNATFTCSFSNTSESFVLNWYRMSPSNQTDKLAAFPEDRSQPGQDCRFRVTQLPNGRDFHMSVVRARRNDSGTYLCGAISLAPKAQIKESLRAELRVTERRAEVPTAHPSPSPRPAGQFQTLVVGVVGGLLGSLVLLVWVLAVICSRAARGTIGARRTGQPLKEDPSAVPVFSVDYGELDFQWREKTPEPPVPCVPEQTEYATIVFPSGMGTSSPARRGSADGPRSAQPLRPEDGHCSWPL

`CC(C)C[C@H]1NC(=O)[C@H](CCN)NC(=O)[C@H](C(C)C)NC(=O)[C@H](Cc2ccc(-c3ccccc3)cc2)NC(=O)[C@H](C(C)C)NC(=O)[C@H](Cc2c[nH]c3ccccc23)NC(=O)[C@H](CC(=O)O)NC(=O)[C@H](Cc2ccc(OCC(=O)O)cc2)NC(=O)[C@H](Cc2ccsc2)NC(=O)CSC[C@@H](C(N)=O)NC(=O)[C@H](CCCCN)NC(=O)[C@H](C(C)C)NC(=O)[C@H](CC2CCCCC2)NC(=O)[C@H](CCN)NC1=O` [Compound 2614] ({CH2CO}-[3Thi]Y(Carboxymethyl)DWV[Bip]V[Dab][dL][Dab][Cha]VKC-NH2; thioether N-14): the IC50 amounted to 7 nM.
Consider `CC[C@H](C)[C@@H]1NC(=O)[C@H](Cc2ccc(-c3ccccc3)cc2)NC(=O)[C@H](C(C)C)NC(=O)[C@H](Cc2c[nH]c3ccccc23)NC(=O)[C@H](CC(=O)O)NC(=O)[C@H](Cc2ccncc2)NC(=O)[C@H](Cc2ccc(OCC(=O)O)cc2)NC(=O)CSC[C@@H](C(=O)N[C@@H](C)C(N)=O)NC(=O)[C@H]([C@@H](C)O)NC(=O)[C@H](C(C)C)NC(=O)[C@H](CC2CCCCC2)NC(=O)[C@H](CCN)NC(=O)[C@@H](CC(C)C)NC(=O)[C@H](CCCN)NC1=O` [Compound 1332], for which the IC50 amounted to 11.7 nM.
Then `Cc1cccc(C[C@@H]2NC(=O)[C@H](CC(=O)O)NC(=O)[C@H](Cc3ccc(F)cc3)NC(=O)[C@H](Cc3ccncc3)NC(=O)CSC[C@@H](C(=O)N[C@@H](CCN)C(N)=O)NC(=O)[C@H](Cc3c[nH]cn3)NC(=O)[C@H](C(C)(C)O)NC(=O)[C@H](CC3CCCCC3)NC(=O)[C@H](CCN)NC(=O)[C@@H](CC(C)C)NC(=O)[C@H](CCCN)NC(=O)[C@H](Cc3ccc(OCC(=O)O)cc3)NC(=O)[C@H](Cc3ccc(-c4ccccc4)cc3)NC(=O)[C@H](Cc3ccc(OCC(=O)O)cc3)NC2=O)c1` [Compound 2672] ({CH2CO}-[4Pal][Phe(4-F)]D[Phe(3-Me)]Y(Carboxymethyl)[Bip]Y(Carboxymethyl)[Orn][dL][Dab][Cha][Val(3-OH)]HC[Dab]-NH2; thioether N-14), with 488 nM; and `CC(C)C[C@H]1NC(=O)[C@H](CCCN)NC(=O)[C@H](CCC(=O)O)NC(=O)[C@H](Cc2ccc(-c3ccccc3)cc2)NC(=O)[C@H](C(C)C)NC(=O)[C@H](Cc2c[nH]c3ccccc23)NC(=O)[C@H](CC(=O)O)NC(=O)[C@H](Cc2ccc(-c3ccc(C(=O)O)cc3)cc2)NC(=O)[C@H](Cc2ccccc2)NC(=O)CSC[C@@H](C(=O)N[C@@H](C)C(N)=O)NC(=O)[C@H]([C@@H](C)O)NC(=O)[C@H](C(C)C)NC(=O)[C@H](CC2CCCCC2)NC(=O)[C@H](CCN)NC1=O` [Compound 2167] ({CH2CO}-F[Bip(4'-COOH)]DWV[Bip]E[Orn][dL][Dab][Cha]VTCA-NH2; thioether N-14), with 17.2 nM; and `CCCC[C@@H]1NC(=O)[C@H](CCN)NC(=O)[C@@H](CC(C)C)NC(=O)[C@H](CCCN)NC(=O)[C@H](C(C)C)NC(=O)[C@H](Cc2ccc(-c3ccccc3)cc2)NC(=O)[C@H](C(C)C)NC(=O)[C@H](Cc2cccc(C)c2)NC(=O)[C@H](CC(=O)O)NC(=O)[C@H](Cc2ccc(C(=O)O)cc2)NC(=O)[C@H](CN)NC(=O)CSC[C@@H](C(=O)N[C@@H](C)C(N)=O)NC(=O)[C@H]([C@@H](C)O)NC(=O)[C@H](C(C)C)NC1=O` [Compound 1205] ({CH2CO}-[Dap][Phe(4-COOH)]D[Phe(3-Me)]V[Bip]V[Orn][dL][Dab][Nle]VTCA-NH2; thioether N-14), with 10.7 nM.
The result for `CC[C@@H](C)[C@@H]1NC(=O)[C@H](Cc2ccc(-c3ccccc3)cc2)NC(=O)[C@H](C(C)C)NC(=O)[C@H](Cc2cccc(C)c2)NC(=O)[C@H](CC(=O)O)NC(=O)[C@H](Cc2ccc(O)cc2)NC(=O)[C@H](CC(N)=O)NC(=O)CSC[C@@H](C(N)=O)NC(=O)[C@H]([C@@H](C)O)NC(=O)[C@H](C(C)C)NC(=O)[C@H](CC(C)C)NC(=O)[C@H](CCN)NC(=O)[C@@H](CC(C)C)NC(=O)[C@H](CCCN)NC1=O` [Compound 1657] ({CH2CO}-NYD[Phe(3-Me)]V[Bip][aIle][Orn][dL][Dab]LVTC-NH2; thioether N-14) reads 59.9 nM; that for `CCC(C)[C@@H]1NC(=O)[C@H](Cc2ccc(-c3ccccc3)cc2)NC(=O)[C@H](C(C)C)NC(=O)[C@H](Cc2cccc(C)c2)NC(=O)[C@H](CC(=O)O)NC(=O)[C@H](Cc2ccc(C(=O)O)cc2)NC(=O)[C@H](Cc2ccncc2)NC(=O)CSC[C@@H](C(=O)N[C@H](CC(N)=O)C(N)=O)NC(=O)[C@H](CO)NC(=O)[C@H](C(C)C)NC(=O)[C@H](CC2CCCCC2)NC(=O)[C@H](CCN)NC(=O)[C@@H](CC(C)C)NC(=O)[C@H](CCCN)NC1=O` (stereo partly drawn) [Compound 2300] ({CH2CO}-[4Pal][Phe(4-COOH)]D[Phe(3-Me)]V[Bip][Ile(3ξ)][Orn][dL][Dab][Cha]VSC[dN]-NH2; thioether N-14), 13.4 nM.
Take `CC(C)C[C@@H]1NC(=O)C(Cc2c[nH]c3ccccc23)NC(=O)[C@H](CC(=O)O)NC(=O)[C@H](Cc2ccc(O)cc2)NC(=O)[C@H](Cc2ccccc2)NC(=O)CSC[C@@H](C(=O)NCC(N)=O)NC(=O)[C@H]([C@@H](C)O)NC(=O)[C@H](C(C)C)NC(=O)[C@H](CC(C)C)NC(=O)[C@H](CC(N)=O)NC(=O)[C@@H](CC(C)C)NC(=O)[C@H](CCN)NC(=O)[C@H](C(C)C)NC(=O)[C@H](Cc2ccc(-c3ccccc3)cc2)NC1=O` (stereo partly drawn) [Compound 1215] ({CH2CO}-FYD[ξW]L[Bip]V[Dab][dL]NLVTCG-NH2; thioether N-14): the IC50 was 47 nM.
Take `CC(C)C[C@H]1NC(=O)[C@H](CCCN)NC(=O)[C@H](CN)NC(=O)[C@H](Cc2ccc(-c3ccccc3)cc2)NC(=O)[C@H](C(C)C)NC(=O)[C@H](Cc2c[nH]c3ccccc23)NC(=O)[C@H](CC(=O)O)NC(=O)[C@H](Cc2ccc(OCC(=O)O)cc2)NC(=O)[C@H](CN)NC(=O)CSC[C@@H](C(=O)N[C@@H](C)C(N)=O)NC(=O)[C@H]([C@@H](C)O)NC(=O)[C@H](C(C)C)NC(=O)[C@H](CC2CCCCC2)NC(=O)[C@H](CCN)NC1=O` [Compound 1376]: the IC50 was 7.2 nM.
For the molecule `CC(C)C[C@H]1NC(=O)[C@H](CCCN)NC(=O)[C@H](C(C)C)NC(=O)[C@H](Cc2ccc(-c3ccccc3)cc2)NC(=O)[C@H](C(C)C)NC(=O)[C@H](Cc2cc(F)c(O)c(F)c2)NC(=O)[C@H](CC(=O)O)NC(=O)[C@H](Cc2ccc(OCC(=O)O)cc2)NC(=O)[C@H](CN)NC(=O)CSC[C@@H](C(=O)N[C@@H](CCN)C(N)=O)NC(=O)[C@H](CCCCN)NC(=O)[C@H](C(C)C)NC(=O)[C@H](CC2CCCCC2)NC(=O)[C@H](CCN)NC1=O` [Compound 2034] ({CH2CO}-[Dap]Y(Carboxymethyl)D[Tyr(3,5-F2)]V[Bip]V[Orn][dL][Dab][Cha]VKC[Dab]-NH2; thioether N-14), the IC50 came out at 84.1 nM.
The result for `Cc1cccc(C[C@@H]2NC(=O)[C@H](CC(=O)O)NC(=O)[C@H](Cc3ccc(C(=O)O)cc3)NC(=O)[C@H](Cc3ccncc3)NC(=O)CSC[C@@H](C(=O)N[C@@H](C)C(N)=O)NC(=O)[C@H]([C@@H](C)O)NC(=O)[C@H](C(C)C)NC(=O)[C@H](CC3CCCCC3)NC(=O)[C@H](CCN)NC(=O)[C@@H](CC(C)C)NC(=O)[C@H](CCCN)NC(=O)[C@H](CCC(=O)O)NC(=O)[C@H](Cc3ccc(-c4ccccc4)cc3)NC(=O)[C@H](C(C)C)NC2=O)c1` [Compound 1417] reads 7 nM.

A word on the IC50: it is the concentration that inhibits the measured activity by half.
